Measured values as given in US11840686B2, “Modulation of prekallikrein (PKK) expression” (Ionis Pharmaceuticals, Inc., priority 2013, dated 2023).
Strand notation (5' to 3'): a small letter for the sugar, then the base; units joined by * are phosphorothioate-linked, units joined directly phosphodiester-linked; [ ] holds rarer units or linkages, { } end groups; capitals alone tell only the bases. e = 2'-O-(2-methoxyethyl) (MOE); k = constrained ethyl (cEt); [5mC] = 5-methylcytosine; d = 2'-deoxy (DNA)

Each substance was assayed on human PKK mRNA (assay: Antisense inhibition of human PKK mRNA in HepaRG cells, 1,000 nM, MOE/deoxy/cEt oligonucleotides (Example 3)). Settings: HepaRG cells, 1,000 nM antisense oligonucleotide, Table 29.
Assay type: cell-based
Procedure, shortened: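 HepaRG cells at 20,000 per well electroporated with 1,000 nM 16-mer MOE/cEt/deoxy gapmers (phosphorothioate, 5-methylcytosine). After about 24 h, PKK mRNA measured by qRT-PCR with primer probe set RTS3454, normalized to RIBOGREEN total RNA. Reported as percent inhibition versus untreated cells.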

Substance | % inhibition
548594 (e[5mC]*e[5mC]*k[5mC]*dT*dT*d[5mC]*dT*dA*dA*d[5mC]*d[5mC]*dA*dA*kG*kG*eA; antisense) [compound 548594] | 30%
548552 (antisense eT*eG*kG*dA*dG*dG*dA*dG*dT*dA*dG*dG*dG*kA*kA*eT) [compound 548552] | 10%
548571 (eA*e[5mC]*kT*d[5mC]*dT*dG*dA*dG*dG*d[5mC]*d[5mC]*dT*dT*kA*kG*eG; antisense) [compound 548571] | 59%

Same assay, conditions: HepaRG cells, electroporation with 1,000 nM antisense oligonucleotide, approx. 24 hours, PKK mRNA by RT-PCR (RTS3454), relative to untreated control cells; Table 25 experiment

Substance | % inhibition
548161 (e[5mC]*eT*k[5mC]*dG*d[5mC]*dA*dT*dT*dG*dT*d[5mC]*dA*dG*k[5mC]*k[5mC]*e[5mC]; antisense) [compound 548161] | 59%
548210 (e[5mC]*eA*kA*d[5mC]*dA*dA*dT*d[5mC]*dT*d[5mC]*dT*dG*dG*kT*k[5mC]*eA; antisense) [compound 548210] | 55%

Same assay, conditions: HepaRG cells, electroporation with 1,000 nM antisense oligonucleotide, approx. 24 hours, PKK mRNA by RT-PCR (RTS3454), relative to untreated control cells; Table 26 experiment

Substance | % inhibition
548288 (eG*eA*kA*dT*dA*dG*d[5mC]*dA*dA*dG*d[5mC]*dT*d[5mC]*k[5mC]*kA*eA; antisense) [compound 548288] | 64%
548289 (e[5mC]*eA*kT*dG*dA*dT*dA*d[5mC]*d[5mC]*dA*d[5mC]*dA*d[5mC]*k[5mC]*kA*e[5mC]; antisense) [compound 548289] | 28%
548283 (antisense eG*eG*k[5mC]*dT*dT*dA*dT*dG*d[5mC]*dT*d[5mC]*d[5mC]*dT*kT*k[5mC]*eT) [compound 548283] | 56%
548255 (antisense e[5mC]*e[5mC]*k[5mC]*d[5mC]*dA*dT*dG*d[5mC]*dA*dT*dA*d[5mC]*dT*k[5mC]*kG*e[5mC]) [compound 548255] | 38%

Same assay, conditions: HepaRG cells, electroporation with 1,000 nM antisense oligonucleotide, approximately 24 hours, primer probe set RTS3454, relative to untreated control cells; experiment of Table 23

Substance | % inhibition
547921 (eT*eG*kA*dG*dA*dA*d[5mC]*d[5mC]*d[5mC]*dT*dG*dG*d[5mC]*kA*kA*e[5mC]; antisense) [compound 547921] | 43%
547941 (eG*eT*kG*dT*dG*d[5mC]*d[5mC]*dA*d[5mC]*dT*dT*dT*d[5mC]*kA*kG*eA; antisense) [compound 547941] | 66%
547976 (antisense e[5mC]*e[5mC]*kA*dA*dA*dG*dT*d[5mC]*dA*dA*d[5mC]*dT*d[5mC]*k[5mC]*k[5mC]*eG) [compound 547976] | 49%
547928 (eG*eA*kT*dG*dG*dT*d[5mC]*d[5mC]*dG*dA*d[5mC]*dA*d[5mC]*kA*k[5mC]*eA; antisense) [compound 547928] | 70%

Same assay, conditions: HepaRG cells, electroporation with 1,000 nM antisense oligonucleotide, approximately 24 hours, primer probe set RTS3454, relative to untreated control cells; experiment of Table 24

Substance | % inhibition
548034 (eA*eT*kA*dG*dA*dT*dG*d[5mC]*dG*d[5mC]*d[5mC]*dA*dA*kA*k[5mC]*eA; antisense) [compound 548034] | 31%
548023 (eG*e[5mC]*kT*dT*d[5mC]*dA*d[5mC]*d[5mC]*dT*dG*d[5mC]*dA*dG*kG*k[5mC]*eT; antisense) [compound 548023] | 58%

Same assay, conditions: PKK mRNA, HepaRG cells, 1,000 nM antisense oligonucleotide; Table 31

Substance | % inhibition
548681 (antisense eG*eA*kT*dA*dT*d[5mC]*dA*dT*d[5mC]*dA*dT*d[5mC]*d[5mC]*k[5mC]*kA*eA) [compound 548681] | 22%
548633 (antisense e[5mC]*eA*kA*dG*dG*d[5mC]*dA*dT*dG*dT*dG*dT*dG*k[5mC]*kA*e[5mC]) [compound 548633] | 41%
548614 (antisense eT*eG*kG*dT*dG*dG*d[5mC]*dG*dG*dG*dA*dT*d[5mC]*kG*kG*eT) [compound 548614] | 0%
548686 (antisense eA*e[5mC]*kG*dA*d[5mC]*dA*dA*dT*dG*dG*dG*dA*dT*kT*k[5mC]*eA) [compound 548686] | 0%
548629 (antisense e[5mC]*e[5mC]*k[5mC]*dA*dT*d[5mC]*dT*dT*dG*dG*dG*dA*d[5mC]*kT*kT*eT) [compound 548629] | 44%

Same assay, conditions: Table 19; HepaRG cells, electroporation with 1,000 nM antisense oligonucleotide, approximately 24 hours; PKK mRNA by RT-PCR (RTS3454), relative to untreated control cells

Substance | % inhibition
548097 (antisense eT*eG*k[5mC]*dT*d[5mC]*d[5mC]*d[5mC]*dT*dG*d[5mC]*dG*dG*dG*k[5mC]*kA*e[5mC]) [compound 548097] | 2%

Same assay, conditions: Table 20; HepaRG cells, electroporation with 1,000 nM antisense oligonucleotide, approximately 24 hours; PKK mRNA by RT-PCR (RTS3454), relative to untreated control cells

Substance | % inhibition
547868 (antisense eA*e[5mC]*k[5mC]*dT*dT*dA*dG*dA*d[5mC]*dA*d[5mC]*dA*dT*kT*kA*eA) [compound 547868] | 47%
547860 (antisense eT*e[5mC]*k[5mC]*dT*d[5mC]*dT*d[5mC]*dA*dT*dA*dT*d[5mC]*dA*kA*k[5mC]*eT) [compound 547860] | 71%
547880 (eT*eT*k[5mC]*dA*dA*d[5mC]*dA*d[5mC]*dT*dG*d[5mC]*dT*dA*kA*k[5mC]*e[5mC]; antisense) [compound 547880] | 69%

Same assay, conditions: Table 21 experiment; HepaRG cells, electroporation with 1,000 nM antisense oligonucleotide, approx. 24 hours; PKK mRNA by RT-PCR (RTS3454), relative to untreated control cells

Substance | % inhibition
547832 (eA*e[5mC]*kT*dG*d[5mC]*dA*d[5mC]*d[5mC]*dT*dG*dT*dT*d[5mC]*kG*kA*eT; antisense) [compound 547832] | 59%
547803 (eT*eG*kT*dA*d[5mC]*dA*dT*dG*dG*dA*dA*dG*d[5mC]*kT*kA*e[5mC]; antisense) [compound 547803] | 0%
547799 (eG*eA*kA*dG*d[5mC]*dT*dA*d[5mC]*dA*dT*d[5mC]*d[5mC]*d[5mC]*k[5mC]*kA*e[5mC]; antisense) [compound 547799] | 41%
547797 (antisense eA*eG*k[5mC]*dT*dA*d[5mC]*dA*dT*d[5mC]*d[5mC]*d[5mC]*d[5mC]*dA*k[5mC]*k[5mC]*eT) [compound 547797] | 33%

Same assay, conditions: Table 22 experiment; HepaRG cells, electroporation with 1,000 nM antisense oligonucleotide, approx. 24 hours; PKK mRNA by RT-PCR (RTS3454), relative to untreated control cells

Substance | % inhibition
547868 (antisense eA*e[5mC]*k[5mC]*dT*dT*dA*dG*dA*d[5mC]*dA*d[5mC]*dA*dT*kT*kA*eA) [compound 547868] | 71%
547860 (antisense eT*e[5mC]*k[5mC]*dT*d[5mC]*dT*d[5mC]*dA*dT*dA*dT*d[5mC]*dA*kA*k[5mC]*eT) [compound 547860] | 70%
547897 (eA*eT*kA*dG*dG*d[5mC]*dA*dA*dT*dT*dG*dT*dT*k[5mC]*k[5mC]*eG; antisense) [compound 547897] | 82%
547880 (eT*eT*k[5mC]*dA*dA*d[5mC]*dA*d[5mC]*dT*dG*d[5mC]*dT*dA*kA*k[5mC]*e[5mC]; antisense) [compound 547880] | 59%
547895 (eA*eG*kG*d[5mC]*dA*dA*dT*dT*dG*dT*dT*d[5mC]*d[5mC]*kG*kG*eT; antisense) [compound 547895] | 94%

Same assay, conditions: Table 27; HepaRG cells, 1,000 nM antisense oligonucleotide; human PKK mRNA

Substance | % inhibition
548322 (eA*eG*kG*dG*dA*dA*dA*dT*dT*dA*dG*dA*dG*kG*k[5mC]*eA; antisense) [compound 548322] | 38%
548309 (eA*eG*kA*d[5mC]*dA*dG*dT*dT*dG*dG*dT*dG*dG*kT*kT*eT; antisense) [compound 548309] | 41%

Same assay, conditions: Table 28; HepaRG cells, 1,000 nM antisense oligonucleotide; human PKK mRNA

Substance | % inhibition
548482 (eG*eG*k[5mC]*dA*dG*dT*dT*dA*dG*dG*d[5mC]*d[5mC]*dA*kG*kG*eA; antisense) [compound 548482] | 53%
548494 (antisense eT*eG*kT*dG*dA*d[5mC]*d[5mC]*d[5mC]*d[5mC]*d[5mC]*d[5mC]*dA*d[5mC]*k[5mC]*kG*e[5mC]) [compound 548494] | 39%
548472 (e[5mC]*e[5mC]*k[5mC]*dA*dA*dT*dA*d[5mC]*dA*dG*dG*dG*d[5mC]*k[5mC]*kA*eG; antisense) [compound 548472] | 0%
548465 (e[5mC]*eT*kG*dT*dA*d[5mC]*d[5mC]*dT*dA*dT*dA*dA*d[5mC]*kT*kG*eT; antisense) [compound 548465] | 0%

Same assay, conditions: Table 30; human PKK mRNA, HepaRG cells, 1,000 nM antisense oligonucleotide

Substance | % inhibition
548439 (antisense e[5mC]*e[5mC]*kT*dA*dT*dA*dT*d[5mC]*dA*d[5mC]*dT*dG*dT*kA*k[5mC]*e[5mC]) [compound 548439] | 46%
548457 (e[5mC]*eT*kA*dT*dA*dA*d[5mC]*dA*dG*dT*dA*dT*d[5mC]*kA*k[5mC]*e[5mC]; antisense) [compound 548457] | 13%
548423 (antisense eA*eG*kT*dA*dT*d[5mC]*dA*d[5mC]*dT*dG*dT*d[5mC]*d[5mC]*kT*kA*eT) [compound 548423] | 72%
